Measurements: patent publication US8211929B2, “Pyrimidine derivatives as kinase modulators and method of use” (Exelixis, Inc., priority 2004, dated 2012)
pIC50: −log10 of the molar value.

Legend:
IGF 3P = biological target: T1, IGF 3P (Homo sapiens, UniProt P08069); assay: IGF1R kinase assay (LCCA), IGF 3P; assay type: biochemical; details: IGF1R kinase LCCA assay
T1 construct: human IGF1R kinase domain residues M954-C1367; made in house; host or cells: baculovirus expression (insect cells)
Experimental: (§1) Kinase activity and compound inhibition are investigated using one or more of the three assay formats described below. The ATP concentrations for each assay are selected to be close to the Michaelis-Menten constant (KM) for each individual kinase. Dose-response experiments are performed at 10 different inhibitor concentrations in a 384-well plate format. […] Y=Min+(Max−Min)/(1+(X/IC50)^H) Equation (2)
(§2) IGF1R kinase biochemical activity was assessed using a Luciferase-Coupled Chemiluminescent Kinase assay (LCCA) format. Kinase activity was measured as the percent ATP remaining following the kinase reaction. Remaining ATP was detected by luciferase-luciferin-coupled chemiluminescence. Specifically, the reaction was initiated by mixing test compounds, 3 μM ATP, 4 μM poly EY peptide and 4 nM IGF1R (baculovirus expressed human IGF1R kinase domain residues M954-C1367) in a 20 uL assay buffer (20 mM Tris-HCL pH7.5, 10 mM MgCl2, 0.02% Triton X-100, 1 mM DTT, 2 mM MnCl2). The mixture is incubated at ambient temperature for 2 hours after which 20 uL luciferase-luciferin mix is added and the chemiluminescent signal read using a Wallac Victor^2 reader.

[1] = biological target: T2, (Homo sapiens, UniProt P08069); assay: IGF1R kinase assay (LCCA), IGF 0P; assay type: biochemical; details: IGF1R kinase LCCA assay
T2 construct: human IGF1R kinase domain residues M954-C1367; made in house; host or cells: baculovirus expression (insect cells)
Experimental: as §1, §2

T1 sequence (P08069 954-1367): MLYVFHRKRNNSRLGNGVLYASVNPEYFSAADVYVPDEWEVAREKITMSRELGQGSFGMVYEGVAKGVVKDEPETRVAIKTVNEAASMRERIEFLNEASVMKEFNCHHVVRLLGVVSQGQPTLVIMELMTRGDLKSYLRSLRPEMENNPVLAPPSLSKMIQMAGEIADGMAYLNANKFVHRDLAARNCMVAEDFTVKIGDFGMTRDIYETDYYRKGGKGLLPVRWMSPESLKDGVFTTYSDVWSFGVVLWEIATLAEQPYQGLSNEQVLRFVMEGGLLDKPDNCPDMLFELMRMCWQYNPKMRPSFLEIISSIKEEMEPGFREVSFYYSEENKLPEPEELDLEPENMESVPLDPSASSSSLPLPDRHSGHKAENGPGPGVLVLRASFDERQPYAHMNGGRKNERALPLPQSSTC
T2 sequence (P08069 954-1367): as above

| Structure (SMILES) | pIC50 (IGF 3P) | pIC50 [1] |
| --- | --- | --- |
| COc1cc(Nc2nc(C)cc(Nc3cc(C4CC4)n[nH]3)n2)cc(C(F)(F)F)c1 [Example 302] | < 5.30 | < 5.30 |
| Clc1cc(Cl)cc(Nc2ncc(Br)c(Nc3cc(C4CC4)n[nH]3)n2)c1 [Example 303] | < 5.30 | < 5.30 |
| FC(F)(F)c1cc(Nc2ncc(Br)c(Nc3cc(C4CC4)n[nH]3)n2)cc(C(F)(F)F)c1 [Example 304] | < 5.30 | < 5.30 |
| FC(F)(F)c1cc(Br)cc(Nc2ncc(Br)c(Nc3cc(C4CC4)n[nH]3)n2)c1 [Example 305] | < 5.30 | < 5.30 |
| Cc1cc(Nc2n[nH]cc2C#N)nc(NCc2cc(-c3ccccc3)no2)n1 [Example 306] | < 5.30 | < 5.30 |
| Cc1cc(Nc2cc(C)on2)nc(NCc2cc(-c3ccccc3)no2)n1 [Example 307] | < 5.30 | < 5.30 |
| Cc1cc(N2CCN(C)CC2)nc(N2CCN(C)CC2)n1 [Example 308] | < 5.30 | < 5.30 |
| Cc1cc(Nc2ccccc2)nc(Nc2ccc(CCC(=O)NCCN3CCCC3)cc2)n1 [Example 309] | < 5.30 | < 5.30 |
| CCN(CC)CCNC(=O)CCc1ccc(Nc2nc(C)cc(Nc3ccccc3)n2)cc1 [Example 310] | < 5.30 | < 5.30 |
| c1cc(Nc2ccon2)nc(Nc2ccc(N3CCOCC3)cc2)n1 [Example 311] | < 5.30 | < 5.30 |
| Fc1cc(F)cc(Nc2ncc(Br)c(Nc3cc(C4CC4)n[nH]3)n2)c1 [Example 313] | < 5.30 | < 5.30 |
| Nc1ncc(Br)c(Nc2cc(C3CC3)[nH]n2)n1 [Example 314] | < 5.30 | < 5.30 |
| CC(C)(C)OC(=O)N1CCC(CNc2ncc(Br)c(Nc3cc(C4CC4)n[nH]3)n2)CC1 [Example 315] | < 5.30 | < 5.30 |
| Brc1cnc(Nc2ccncc2)nc1Nc1cc(C2CC2)[nH]n1 [Example 316] | < 5.30 | < 5.30 |
| Brc1cnc(Nc2cc(-c3ccccc3)n[nH]2)nc1Nc1cc(-c2ccccc2)n[nH]1 [Example 319] | < 5.30 | < 5.30 |
| Brc1cnc(Nc2ccc(OCc3ccccc3)cc2)nc1Nc1cc(C2CC2)n[nH]1 [Example 320] | < 5.30 | < 5.30 |
| Brc1cnc(Nc2ccc(Oc3ccccc3)cc2)nc1Nc1cc(C2CC2)[nH]n1 [Example 321] | < 5.30 | < 5.30 |
| Brc1cnc(Nc2ccc(-c3ccccc3)cc2)nc1Nc1cc(C2CC2)[nH]n1 [Example 322] | < 5.30 | < 5.30 |
| Brc1cnc(NCc2cc(-c3ccccc3)no2)nc1Nc1cc(-c2ccccc2)n[nH]1 [Example 323] | < 5.30 | < 5.30 |
| Clc1ccc(-c2ccc(CNc3ncc(Br)c(Nc4cc(C5CC5)n[nH]4)n3)s2)cc1 [Example 324] | < 5.30 | < 5.30 |
| Clc1cc(Nc2ncc(Br)c(Nc3cc(C4CC4)n[nH]3)n2)cc(Cl)c1Cl [Example 325] | < 5.30 | < 5.30 |
| CC(C)(C)OC(=O)N1CCC(Nc2ncc(Br)c(Nc3cc(C4CC4)[nH]n3)n2)CC1 [Example 326] | < 5.30 | < 5.30 |
| Nc1ccc(Nc2nc(Nc3cc(C4CC4)n[nH]3)ncc2Br)cc1 [Example 327] | < 5.30 | < 5.30 |
| Brc1cnc(NCCC(c2ccccc2)c2ccccc2)nc1Nc1cc(C2CC2)[nH]n1 [Example 328] | < 5.30 | < 5.30 |
| Brc1cnc(NCC(c2ccccc2)c2ccccc2)nc1Nc1cc(C2CC2)[nH]n1 [Example 329] | < 5.30 | < 5.30 |
| Brc1cnc(Nc2cccc(Oc3ccccc3)c2)nc1Nc1cc(C2CC2)n[nH]1 [Example 330] | < 5.30 | < 5.30 |
| O=[N+]([O-])c1cnc(Nc2ccc(Cl)cc2Cl)nc1Nc1cc(C2CC2)n[nH]1 [Example 331] | < 5.30 | < 5.30 |
| NC(=O)c1c[nH]nc1Nc1nc(Nc2ccccc2Cl)ncc1Br [Example 332] | < 5.30 | < 5.30 |
| Brc1cnc(NC(Cc2ccccc2)c2ccccc2)nc1Nc1cc(C2CC2)[nH]n1 (centres unmarked) [Example 333] | < 5.30 | < 5.30 |

Further lines, results first:

| pIC50 (IGF 3P) | pIC50 [1] | Structure (SMILES) |
| --- | --- | --- |
| < 5.30 | 5.30 to 6.30 | Brc1cnc(NCc2cnn(-c3ccccc3)n2)nc1Nc1cc(C2CC2)n[nH]1 [Example 266] |
| < 5.30 | < 5.30 | Clc1ccccc1Nc1ncc(Br)c(Nc2n[nH]c3ccccc23)n1 [Example 267] |
| < 5.30 | < 5.30 | Cc1cc(Nc2cc(C3CC3)n[nH]2)nc(Nc2ccc(N3CCOCC3)cc2)n1 [Example 268] |
| < 5.30 | < 5.30 | Brc1cnc(Nc2cccc(OCc3ccccc3)c2)nc1Nc1cc(C2CC2)n[nH]1 [Example 269] |
| < 5.30 | 5.30 to 6.30 | Cc1cc(C)cc(Nc2nc(C)cc(Nc3cc(C4CC4)n[nH]3)n2)c1 [Example 270] |
| < 5.30 | < 5.30 | Brc1cnc(NCc2cc(-c3ccccc3)cs2)nc1Nc1cc(C2CC2)n[nH]1 [Example 271] |
| < 5.30 | < 5.30 | Clc1ccccc1CCNc1ncc(Br)c(Nc2cc(C3CC3)n[nH]2)n1 [Example 272] |
| < 5.30 | 5.30 to 6.30 | Cc1cc(Nc2cc(C3CC3)n[nH]2)nc(Nc2cc(Cl)cc(Cl)c2)n1 [Example 274] |
| < 5.30 | 5.30 to 6.30 | Clc1ccc(-c2cc(CNc3ncc(Br)c(Nc4cc(C5CC5)[nH]n4)n3)on2)cc1 [Example 275] |
| < 5.30 | 5.30 to 6.30 | O=C(Nc1ccccc1)c1nc(Nc2ccccc2Cl)nc(Nc2cc(C3CC3)n[nH]2)c1[N+](=O)[O-] [Example 276] |
| < 5.30 | < 5.30 | COc1ccc(-c2cc(CNc3ncc(Br)c(Nc4cc(C5CC5)[nH]n4)n3)on2)cc1 [Example 277] |
| < 5.30 | < 5.30 | O=C(Nc1ccc(N2CCOCC2)cc1)c1nc(Nc2ccccc2Cl)nc(Nc2cc(C3CC3)n[nH]2)c1[N+](=O)[O-] [Example 278] |
| < 5.30 | < 5.30 | O=C(Nc1ncc(Br)c(Nc2cc(C3CC3)[nH]n2)n1)c1ccccc1Cl [Example 279] |
| < 5.30 | < 5.30 | CC(=O)Nc1cnc(Nc2ccccc2Cl)nc1Nc1cc(C2CC2)n[nH]1 [Example 280] |
| < 5.30 | < 5.30 | c1ccc(CN2CCc3c(nc(Nc4ccc(N5CCOCC5)cc4)nc3Nc3cc(C4CC4)[nH]n3)C2)cc1 [Example 281] |
| < 5.30 | < 5.30 | c1cc(N2CCOCC2)ccc1Nc1nc2c(c(Nc3cc(C4CC4)[nH]n3)n1)CCNC2 [Example 282] |
| < 5.30 | < 5.30 | c1ccc(-c2cc(CNc3nc4c(c(Nc5cc(C6CC6)[nH]n5)n3)CCNC4)on2)cc1 [Example 283] |
| < 5.30 | < 5.30 | Nc1nc(C2CC2)nn1-c1nc(Nc2ccc(N3CCOCC3)cc2)ncc1Br [Example 284] |

| pIC50 (IGF 3P) | pIC50 [1] | Structure (SMILES) |
| --- | --- | --- |
| < 5.30 | < 5.30 | Nc1ncnn1-c1nc(Nc2ccc(N3CCOCC3)cc2)ncc1Br [Example 285] |
| < 5.30 | < 5.30 | Clc1ccccc1Nc1ncc(Br)c(Nc2cc(C3CC3)on2)n1 [Example 286] |
| < 5.30 | < 5.30 | Nc1nc(Nc2ccc(N3CCOCC3)cc2)ncc1Br [Example 287] |
| < 5.30 | < 5.30 | FC(F)(F)c1ccc(-c2ncc(CNc3ncc(Br)c(Nc4cc(C5CC5)[nH]n4)n3)s2)cc1 [Example 288] |
| < 5.30 | < 5.30 | Clc1ccc(-c2ncc(CNc3ncc(Br)c(Nc4cc(C5CC5)[nH]n4)n3)s2)cc1 [Example 289] |
| < 5.30 | < 5.30 | Clc1cccc(-c2ncc(CNc3ncc(Br)c(Nc4cc(C5CC5)[nH]n4)n3)s2)c1 [Example 290] |
| < 5.30 | < 5.30 | Nc1cccc(Nc2nc(NCc3cc(-c4ccccc4)no3)ncc2Br)n1 [Example 291] |
| < 5.30 | < 5.30 | Brc1cnc(NCc2cc(-c3ccccc3)no2)nc1Nc1ccccc1 [Example 292] |
| < 5.30 | < 5.30 | CCCCNc1cc(C)nc(NCc2cc(-c3ccccc3)no2)n1 [Example 293] |
| < 5.30 | < 5.30 | CCCCNc1cc(C)nc(Nc2ccc(N3CCOCC3)cc2)n1 [Example 294] |
| < 5.30 | < 5.30 | Cc1cc(Nc2cc(C)on2)nc(Nc2ccc(N3CCOCC3)cc2)n1 [Example 295] |
| < 5.30 | < 5.30 | Cc1cc(Nc2nc(NCc3cc(-c4ccccc4)no3)ncc2Br)no1 [Example 296] |
| < 5.30 | < 5.30 | Cc1cc(Nc2ccc3ccccc3c2)nc(Nc2ccc(N3CCOCC3)cc2)n1 [Example 297] |
| < 5.30 | < 5.30 | Cc1cc(NCc2ccccc2)nc(NCc2cc(-c3ccccc3)no2)n1 [Example 298] |
| < 5.30 | < 5.30 | Cc1cc(Nc2ccc3ccccc3c2)nc(NCc2cc(-c3ccccc3)no2)n1 [Example 299] |
| < 5.30 | < 5.30 | Cc1cc(Nc2cc(C3CC3)n[nH]2)nc(Nc2cc(C(F)(F)F)cc(C(F)(F)F)c2)n1 [Example 300] |
| < 5.30 | < 5.30 | Cc1cc(Nc2cc(C3CC3)n[nH]2)nc(Nc2cc(Br)cc(C(F)(F)F)c2)n1 [Example 301] |
